Assay [1] has as its system antibodies to HIV-1. The assay is described as follows: EIA of peptide-protein conjugates coated on polystyrene microtiter plates, human sera. It counts as binding. Conditions: for immunoreactivity with HIV-1 antibodies (FIG. 1): C-terminal BSA-SMCC conjugates, 10 micrograms peptide/ml coating, 1:101 dilution of pooled HIV+ / HIV- sera. The method, then: (§1) The free peptides or peptide-protein conjugates of FIGS. 1-13 were initially screened for immunoreactivity by coating each well of polystyrene microtiter EIA plates (Costar, Cambridge, Mass., U.S.A.) with 0.2 ml amounts of concentrations of 5-50 micrograms/ml peptide in Tris buffer, 10 mM, pH 8.0, at 4° C. overnight. Peptides or peptide-protein conjugates showing immunoreactivity by EIA were then further diluted for coating to determine the minimal concentrations required that allowed maximal immunoreactivity with antibodies to HIV, and minimal nonspecific reactivity with normal sera. The EIA tests were performed as follows: The coating solution was removed from each well and the wells were blocked at 37° C. for 30 minutes with a solution of 50 mM phosphate, 100 mM NaCl, pH 7.4, 1% BSA, 0.5% gelatin. The wells were then aspirated dry with a microtiter plate washer and washed 3 times with a solution of 50 mM phosphate, 100 mM NaCl, 0.05% Tween 20, pH 7.4 (PBST). A 1:101 dilution (in PBST with 1% BSA, 1% NRS) of the primate serum to be tested was then added as 0.2 ml to each washed well and the plates were incubated at 37° C. for 30 minutes. The plates were then washed×3 with PBST, and 0.2 ml amounts of a 1:2000 dilution of goat anti-human (GAH) peroxidase enzyme conjugate (Organon Teknika, Cappel, Melvern, Pa., U.S.A.) that recognized human IgG, IgA, and IgM were added to each well, and the plates were incubated for 30 minutes at 37° C. The plates were then washed×3 with PBST and incubated with 0.2 ml/well substrate consisting of 0.1M citric acid pH 5.2, 0.1 mg/ml o-phenylene diamine, 0.01% H2 O2, at room temperature in the dark for 10 minutes. Reactions were stopped with 50 microliters of 4N H2 SO4, and the color development was quantitated in a Multiscan plate reader at A492. In each series of experiments positive and negative controls were included, and all tests were done in duplicate or quadruplicate. Most peptides and peptide conjugates were initially screened against a 1:101 dilution of pools of HIV positive or HIV negative sera, and the same serum pool was used to allow quantitative comparison of immunoreactivity of different free peptides or peptide-protein conjugates.
(§2) The peptides in FIGS. 1 and 5 were synthesized as described in Example 1 and conjugated to KLH or BSA as described in Example 2. These peptide-protein conjugates were coated to polystyrene microtiter plates all at a concentration 10 micrograms peptide/ml and evaluated for immunoreactivity as described in Example 3, using a 1:101 dilution of a pool of sera (HIV+/SIV+, respectively) containing antibodies to HIV-1 (FIG. 1) or to HIV-2 (FIG. 5), as well as pooled serum (HIV-/SIV-, respectively) containing no antibodies to HIV-1 or HIV-2. […] Since sera from patients infected with HIV-2 are relatively unavailable in the United States, the immunoreactivity of HIV-2 synthetic peptides was assessed using serum from macaques infected with SIV, obtained from the University of Washington Primate Center, Seattle, Wash., U.S.A. The AA sequence of SIV is nearly identical to HIV-2 in the region of the peptides synthesized (see Myers et al., Human Retroviruses and AIDS, 1988. A compilation of nucleic acid and amino acid sequences. Los Alamos National Laboratory, Los Alamos, N. Mex., 87545, USA).

The subject of the next assay is antibodies to SIV/HIV-2. As to the kind of experiment: EIA of peptide-protein conjugates coated on polystyrene microtiter plates, macaque sera. The class given is binding, rhesus macaque (Macaca mulatta). The settings on record: for immunoreactivity with SIV/HIV-2 antibodies (FIG. 5): C-terminal BSA-SMCC conjugates, 10 micrograms peptide/ml coating, 1:101 dilution of pooled SIV+ / SIV- macaque sera; for discrimination of positive from negative macaque sera (FIG. 7): peptide-BSA conjugates.
Description: For all of the immunoassays employing human serum, the serum samples were obtained from the King County Health Department, Seattle, Wash., U.S.A., and each serum had been characterized as positive or negative with respect to antibodies to HIV-1, as determined by testing with the commercially licensed Genetic Systems and or DuPont EIA tests. Serum from rhesus macaque monkeys (Macaca mulatta) was obtained from the University of Washington, Seattle, Wash., U.S.A., and had been characterized by a SIV whole virus lysate EIA as either containing or not containing antibodies to SIV which is nearly identical in sequence to HIV-2 in the region of the peptide epitopes studied.
as §1, §2

Another assay deals with Antibodies to HIV-2. As to the kind of experiment: Detection of seroconversion in macaques experimentally infected with SIV, EIA. It counts as binding, macaque. On the procedure:
as §1
The immunoreactivity of the HIV-2 peptide BSA conjugates 2S24, (2S24 plus 5S86), and 5S92 was evaluated for detection of seroconversion in macaques using serial sera collected over a 16 week period from 7 macaques experimentally infected with SIV at week 0.

In assay [2] the test system is antibodies to HIV-1. The assay is described as follows: EIA of p24 synthetic peptide-BSA conjugates with serum pools and individual sera. The class given is binding, human. The method, then:
as §1
FIG. 8 illustrates the immunoreactivity and AA sequences of synthetic peptides of the p24 protein of HIV-1, when conjugated to BSA via their C-termini using SMCC, and reacted with a pool of approximately 50 sera from persons containing antibody to HIV-1, or with a pool of approximately 30 sera from individuals devoid of antibody to HIV-1. […] No negative sera (0/85, 0%) reacted, and 17 positive sera (17/98, 17%) were immunoreactive. It has been reported that individuals lose antibodies to p24 during the course of progression from asymptomatic infection to clinical disease and AIDS (Franchini et al., Blood 69:(2):437-441, 1987, and Weber et al., Lancet i:119-122, 1987), which may explain the lower frequency of antibodies to this peptide in the sera tested.

Setting [3] is: BSA-SMCC conjugate, 85 individual sera without antibodies to HIV-1.
Where [4] appears, read: BSA-SMCC conjugate, 98 individual sera containing antibodies to HIV-1.

Entries after “also recorded” stand apart in the source; their conditions may differ.

Turning to “IKQLQARILAVERYLKDQQ [4S24, reference compound]”, the “immunoreactivity with HIV-1 antibodies (FIG. 1)” value (from here on “immunoreactivity … (FIG. 1)”) with antibodies to HIV-1 [1] was “lower immunoreactivity”.
As to IWGCSGKLICTTAVPGC [2S09], the “immunoreactivity with individual positive sera (FIGS. 10B, 10C)” value in the assay on antibodies to HIV-1 [1] (BSA-SMCC conjugate, 98 HIV-1 antibody positive human sera) is listed as “some positive samples had very low immunoreactivity”. The “immunoreactivity … (FIG. 1)” value in the assay on antibodies to HIV-1 [1] is recorded as “Significant immunoreactivity; also recorded: slightly superior immunoreactivity; also recorded: maximally immunoreactive; also recorded: higher reactivity”.
Consider LLGIWGCSGKLICTTGC [2S06], for which the “immunoreactivity … (FIG. 1)” value in the assay on antibodies to HIV-1 [1] is recorded as “Significant immunoreactivity”.
Turning to SWGCAFRQVCHTTVPGC [2S27], in the assay with antibodies to SIV/HIV-2, the “immunoreactivity with SIV/HIV-2 antibodies (FIG. 5)” value was “Significant immunoreactivity; also recorded: best immunoreactivity; also recorded: maximally immunoreactive” and the “discrimination of positive from negative macaque sera (FIG. 7)” value (shortened to “discrimination of positive”) is “most favorable performances”.
On to KLICTTAVPWNASWSGC [2S15], for which the “immunoreactivity … (FIG. 1)” value in the assay with antibodies to HIV-1 [1] is listed as “Significant immunoreactivity; also recorded: higher reactivity”.
On to YLKDQQLLGIWGCSGC [2S03], for which the “immunoreactivity … (FIG. 1)” value in the assay on antibodies to HIV-1 [1] is given as “significantly less immunoreactive”.
“IWGCSGKMICTTAVPGC [5S76, unnatural variant of HIV-1 gp41 peptide 2S09]”: the “number of positive samples giving A492 less than 1.0” value in the assay with antibodies to HIV-1 [1] (BSA-SMCC conjugate, 98 positive human sera (FIGS. 11A, 11B)) is on record as “Five”.
With SGKLICTTAVPWNASGC [2S13], the “immunoreactivity … (FIG. 1)” value in the assay with antibodies to HIV-1 [1] is reported as “Significant immunoreactivity; also recorded: higher reactivity”.
For CSGKLICTTAVPWNAGC [3S51], in the assay with antibodies to HIV-1 [1], the “immunoreactivity … (FIG. 1)” value was “Significant immunoreactivity; also recorded: higher reactivity”.
Same read-out and setting: the same measure for QQLLGIWGCSGKLICGC [3S36]: “Significant immunoreactivity”.
Still for that read-out and setting: the same measure for LGIWGCSGKLICTTAGC [2S07]: “Significant immunoreactivity”.
Regarding DQARLNSWGCAFRQVC [2S24], the “Reactivity by Peptide-BSA Conjugate (reactive macaques/7)” value in the assay with Antibodies to HIV-2 (Week 0 (SIV infection at week 0)) was 0/7; in the assay with Antibodies to HIV-2 (Week 1), 0/7; with Antibodies to HIV-2 (Week 2), 1/7; in the assay with Antibodies to HIV-2 (Week 3), 2/7; in the assay on Antibodies to HIV-2 (Week 4) it was 4/7; in the assay on Antibodies to HIV-2 (Week 6), 6/7. For the same sequence, the “Reactivity by Peptide-BSA Conjugate (reactive macaques/7)” value in the assay with Antibodies to HIV-2 (Week 8), in the assay with Antibodies to HIV-2 (Week 12) and with Antibodies to HIV-2 (Week 16) was 7/7 throughout. Further, in the assay with antibodies to SIV/HIV-2, the “immunoreactivity with SIV/HIV-2 antibodies (FIG. 5)” value is “Significant immunoreactivity; also recorded: best immunoreactivity; also recorded: maximally immunoreactive”. The “discrimination of positive” value in the assay on antibodies to SIV/HIV-2 was “most favorable performances”.
As to “RILAVERYLKDQQLLGIWGCSGKLIC [4S25, reference compound]”, in the assay on antibodies to HIV-1 [1], the “immunoreactivity … (FIG. 1)” value is “Significant immunoreactivity; also recorded: lower immunoreactivity; also recorded: lower or comparable immunoreactivity”.
On the same count and under the same terms, under GKLICTTAVPWNASWGC [3S55] stands “Significant immunoreactivity; also recorded: higher reactivity”.
For the sequence “SWGCAFRQVCHTSVPGC [5S86, HIV-2/SIV natural peptide]”, the “discrimination of positive” value with antibodies to SIV/HIV-2 is “most favorable performances”.
As to AVERYLKDQQLLGC [2S01], in the assay with antibodies to HIV-1 [1], the “immunoreactivity … (FIG. 1)” value is recorded as “significantly less immunoreactive”.
“ALGPAATLEEMMTACGC [5S94, HIV-1 p24 peptide with GC tail]”: in the assay with antibodies to HIV-1 [2] (setting [3]), the negative sera reacting is given as 0/85 and the “negative sera reacting, percent” value is recorded as 0%. Besides, in the assay with antibodies to HIV-1 [2] (setting [4]), the positive sera immunoreactive was 17/98 and the “positive sera immunoreactive, percent” value is 17%. Also, the “immunoreactivity with serum pools (FIG. 8)” value in the assay on antibodies to HIV-1 [2] (BSA-SMCC conjugates, pool of approximately 50 HIV+ sera and approximately 30 HIV- sera) was “immunoreactive peptide; also recorded: significant immunoreactivity”.
In the case of KDQQLLGIWGCSGKLGC [2S04], the “immunoreactivity … (FIG. 1)” value with antibodies to HIV-1 [1] is listed as “Significant immunoreactivity”.
Regarding ERYLKDQQLLGIWGC [2S02], the “immunoreactivity … (FIG. 1)” value with antibodies to HIV-1 [1] is “significantly less immunoreactive”.
On to GCSGKLICTTAVPWNGC [2S11], for which, in the assay on antibodies to HIV-1 [1], the “immunoreactivity … (FIG. 1)” value is given as “Significant immunoreactivity; also recorded: higher reactivity”.

The record behind these values is patent US5260189A, “Synthetic HIV-like peptides their compositions and uses” (Immunodiagnostics, Inc., priority 1992, dated 1993).
